For orientation: EC50 means the concentration needed to bring the measured effect to its halfway point.

From paper PMC5447021, “TNF Lectin-Like Domain Restores Epithelial Sodium Channel Function in Frameshift Mutants Associated with Pseudohypoaldosteronism Type 1B” (Frontiers in Immunology, 2017) come the findings set out here.

The experiment deals with αT169fs (co-expressed with βγ-ENaC). The experiment can be described thus: Whole-cell patch clamp, αT169fs + WT βγ. The experiment is classed as cell-based, human. Conditions: read-out: EC50, solnatide, HEK-293, whole-cell, -100 mV, n = 9. The method, then: Point mutations of α-, β-, γ- and δ-hENaC and PHA1B frameshift mutations of α-hENaC were prepared with the QuikChange Lightning Site-Directed Mutagenesis Kit (Agilent Technologies, CA, USA). Mutagenic primers were designed individually with the Primer Design Program provided on the producer’s website or for the frameshift mutations the same base changes as reported in patients (see Table 2) were performed. Primers were ordered from Sigma-Aldrich, Vienna, Austria.
HEK-293 cells were transfected 1 day after cell seeding using X-tremeGENE HP DNA transfection reagent (Roche Diagnostics, Mannheim, Germany) according to the manufacturer’s protocol. A set of WT or mutant αβγ- or δβγ-hENaC, or α-, β-, γ-, or δ-hENaC alone was used, and the ratio of DNA to transfection reagent was 1:3. The expression was highest 48–72 h after transfection.
Electrophysiological experiments were performed as described in detail by Shabbir et al. ([16]). […] Currents were recorded with the patch clamp method in the whole-cell mode. The chamber contained 1 ml of the bath solution of the following composition (in mM): 145 NaCl, 2.7 KCl, 1.8 CaCl2, 2 MgCl2, 5.5 glucose, and 10 HEPES, adjusted to pH 7.4 with 1 M NaOH solution. Micropipettes were pulled from thin-walled borosilicate glass capillaries (Harvard Apparatus, Holliston, MA, USA) with a DMZ Zeitz Puller to obtain electrode resistances ranging from 2 to 5 MΩ. […]
Background: The patch-clamp technique gives a direct electrical read-out from membranes.

As for `C[C@@H]1NC(=O)CNC(=O)[C@H](CCC(=O)O)NC(=O)[C@@H]2CCCN2C(=O)[C@H]([C@@H](C)O)NC(=O)[C@H](CCC(=O)O)NC(=O)[C@H](CCCNC(=N)N)NC(=O)[C@H](CCC(N)=O)NC(=O)CNC(=O)[C@@H](N)CSSC[C@@H](C(=O)O)NC(=O)[C@H](Cc2ccc(O)cc2)NC(=O)[C@H](Cc2c[nH]c3ccccc23)NC(=O)[C@@H]2CCCN2C(=O)[C@H](CCCCN)NC(=O)[C@H](C)NC(=O)[C@H](CCC(=O)O)NC1=O` [solnatide, L-cysteine, L-cysteinylglycyl-L-glutaminyl-L-arginyl-L-α-glutamyl-L-threonyl-L-prolyl-L-α-glutamylglycyl-L-alanyl-L-α-glutamyl-L-alanyl-L-lysyl-L-prolyl-L-tryptophyl-L-tyrosyl-, cyclic (1→17)-disulfide], the EC50 came to 58.3 ± 5.2 nM.
